For experiment [1] the following is noted: compared with H2; cited from earlier work.
Experiment [2] has as its system Parkinson's disease patient. The method, then: A Parkinson's disease patient (medical history: about 8 years) inhaled a mixed gas of hydrogen and air using a gaseous hydrogen inhalation apparatus (MHG-2000α (registered trademark); MiZ Company Limited) for about 90 minutes per day over about 2 months. Here, the mixed gas was inhaled every 2 or 3 days over first about 3 weeks and every day over subsequent about 5 weeks. The hydrogen concentration in MHG-2000α is about 6.0 to 7.0% by volume (hydrogen generation rate: about 140 ml/min).
A Parkinson's disease patient one (medical history: about 6 years) inhaled a mixed gas of hydrogen and air using a gaseous hydrogen inhalation apparatus (MHG-2000α (registered trademark); MiZ Company Limited) for about 90 minutes or about 120 minutes per day. Here, the mixed gas was inhaled every day over about 4.5 months. The hydrogen concentration in MHG-2000α is about 6.0 to 7.0% by volume (hydrogen generation rate: about 140 ml/min).

For experiment [3], the system named is Parkinson's disease model rat. The note with it: cited from earlier work.
For experiment [4], the system named is Parkinson's disease patient. The source holds these as a separate data set.
Experiment [5] deals with patient with multiple system atrophy. Description: Hydrogen water ingestion / hydrogen gas inhalation by a patient with multiple system atrophy (Case 3). In kind it is in vivo, human. Particulars: about 6.0 to 7.0% hydrogen, about 1.5 to about 2 hours every day, early stage after the start of the inhalation.
Procedure: The hydrogen concentration in MHG-2000α is about 6.0 to 7.0% (hydrogen generation rate: about 140 ml/min).
[6] abbreviates: Case 1, first inhalation for 90 minutes, about 6.0 to 7.0% by volume hydrogen.
Setting [7] is: Case 2, about 4 months after the start of inhalation.
Setting [8] is: Case 2, immediately after inhalation for about 90 or about 120 minutes per day, substantially every day over about 1 month.

Read-outs that look alike come from different tables or passages of the source.

Take `[2H][2H]` [D2, deuterium]: the superoxide scavenging effect entry in experiment [1] was “higher than that of H2”.
`[HH]` [hydrogen gas, molecular hydrogen]: the “posture forward-bending in a dogleg shape” value in experiment [2] (Case 1, 90 minutes after the start of first inhalation) was “improved to a middle between the upright state and the dogleg shape state”. Also, in experiment [2] (Case 1, about 6.0 to 7.0% by volume hydrogen, about 90 minutes per day over about 2 months), the “complexion, voice, movement, gait and the like” value is listed as “improved to be almost comparable to a healthy person”. Moreover, in experiment [2] (setting [6]), the “time after start of inhalation at which shaking of hands was stopped” value is listed as “about 30 minutes” and the “time after start of inhalation at which shaking under the jaw was stopped” value is “about 40 minutes”. Also, the “time after start of inhalation at which shaking of the hands was stopped” value in experiment [2] (Case 2 (person one), first inhalation, about 6.0 to 7.0% by volume hydrogen) was “about 45 minutes”. Moreover, in experiment [2] (setting [7]), the “bending of the spine” value is “reduced as compared to the symptom in the early stage”; the “shaking of the hands and the mouth” value is reported as “too small to be recognized unless a careful observation is made”; the “time taken for fastening buttons of clothing and for change of clothes” value is given as “markedly shortened”. Moreover, the “bending of the waist compared to before the inhalation” value in experiment [2] (Case 2, about 90 minutes after the start of first inhalation) is recorded as “improved”. In experiment [2] (Case 2, first inhalation, about 6.0 to 7.0% by volume hydrogen), the “time after start of inhalation at which shaking of the mouth was stopped” value was “about 55 minutes”. In addition, in experiment [2] (setting [8]), the forward-bending posture result was “improved to a reasonably upright state”; the “shaking of the hands and legs” value was “did not shake, or shook slightly”; the “shaking of the mouth” value is “shook slightly”. Moreover, the advancement of symptoms entry in experiment [3] (hydrogen gas (2%) continuously breathed) is recorded as “the symptoms were advanced”. In addition, the advancement of symptoms result in experiment [3] (hydrogen gas (2%) intermittently breathed) is “slightly lessened”. Further, in experiment [4] (Case 4, about 4% by volume hydrogen, about 20 minutes every day over 3 months, FIG. 1A), the “action tremors, VAS scale values of 0 to 5.0” value is listed as “evidently improved”. Further, the “slowness of movement, VAS scale values of 0 to 5.0” value in experiment [4] (Case 4, about 4% by volume hydrogen, about 20 minutes every day over 3 months, FIG. 1B) was “evidently improved”. Besides, the “tiny step gait, VAS scale values of 0 to 5.0” value in experiment [4] (Case 4, about 4% by volume hydrogen, about 20 minutes every day over 3 months, FIG. 1C) was “evidently improved”. In addition, the “slowness of movement, VAS scale values of 0 to 5.0” value in experiment [4] (Case 5, about 6.0 to 7.0% by volume hydrogen, about 1 to 3 hours every day over 3 months, FIG. 2A) is “evidently improved”. Further, in experiment [4] (Case 5, about 6.0 to 7.0% by volume hydrogen, about 1 to 3 hours every day over 3 months, FIG. 2B), the “forward-bending posture, VAS scale values of 0 to 5.0” value is listed as “evidently improved”. Further, the “rigidity, VAS scale values of 0 to 5.0” value in experiment [4] (Case 5, about 6.0 to 7.0% by volume hydrogen, about 1 to 3 hours every day over 3 months, FIG. 2C) is on record as “evidently improved”. Besides, the “bowel movement (constipation), VAS scale values of 0 to 5.0” value in experiment [4] (Case 5, about 6.0 to 7.0% by volume hydrogen, about 1 to 3 hours every day over 3 months, FIG. 2E) is reported as “evidently improved”. The “sleep (insomnia), VAS scale values of 0 to 5.0” value in experiment [4] (Case 5, about 6.0 to 7.0% by volume hydrogen, about 1 to 3 hours every day over 3 months, FIG. 2F) is given as “evidently improved”. Moreover, the “tiny step gait, VAS scale values of 0 to 5.0” value in experiment [4] (Case 5, over three months after the start of inhalation, FIG. 2D legend) was “improvements”. For the same molecule, in experiment [5], the gait result is “became able to walk steadily and without support”.

These data come from patent US20200000843A1, “COMPOSITION FOR IMPROVEMENT OR PREVENTION OF PARKINSONIAN SYNDROME” (MiZ Company Limited, priority 2018, published 2020).
